Where “and” joins values, the source holds several entries; their conditions need not be identical. Equal values may be shown once. Numbers after ± are expanded uncertainties.
Key:
[1] = for mass density: 101.33 kPa, X-ray diffraction; for Normal melting temperature: DTA
[2] = Molar enthalpy of transition or fusion; details: DSC
[3] = molar heat capacity at constant pressure; details: 101.33 kPa, Crystal 2, DSC
[4] = molar enthalpy of vaporization or sublimation; details: Static calorimetry

## [C-]#[O+].[C-]#[O+].[C-]#[O+].[C-]#[O+].[C-]#[O+].[C-]#[O+].[C-]#[O+].[C-]#[O+].[C-]#[O+].[C-]#[O+].[Re].[Re] [decacarbonyldirhenium]
[1]; 293 K, Crystal
  mass density: 2932 ± 41 kg/m3
[1]; Crystal 1
  Normal melting temperature: 182.01 ± 1.7 °C
[1]; Crystal 2, DSC
  Triple point temperature: 366.75 ± 0.92 K
[2]; Crystal 1
  Molar enthalpy of transition or fusion: 1 ± 0.263 kcal/mol
[2]; Crystal 2
  Molar enthalpy of transition or fusion: 3.66 ± 0.0908 kcal/mol
[3]; 298.15 K
  molar heat capacity at constant pressure: 391.8 ± 53 J/K/mol
[3]; 303.15 K
  molar heat capacity at constant pressure: 396.5 ± 50 J/K/mol
[3]; 308.15 K
  molar heat capacity at constant pressure: 401.1 ± 47 J/K/mol
[3]; 313.15 K
  molar heat capacity at constant pressure: 405.5 ± 44 J/K/mol
[3]; 318.15 K
  molar heat capacity at constant pressure: 409.8 ± 41 J/K/mol
[3]; 323.15 K
  molar heat capacity at constant pressure: 413.9 ± 39 J/K/mol
[3]; 328.15 K
  molar heat capacity at constant pressure: 417.9 ± 36 J/K/mol
[3]; 333.15 K
  molar heat capacity at constant pressure: 421.8 ± 34 J/K/mol
[3]; 338.15 K
  molar heat capacity at constant pressure: 425.5 ± 32 J/K/mol
[4]; 332.8 K, Crystal 2
  molar enthalpy: 23 ± 0.234 kcal/mol

## [CH3][Re](=[O])(=[O])=[O] [methyltrioxorhenium]
[1]; 167 K, Crystal
  mass density: 4254 ± 7 kg/m3
[1]; 214 K, Crystal
  mass density: 4199 ± 6 kg/m3
[1]; 296 K, Crystal
  mass density: 4124 ± 80 kg/m3 and 4132 ± 19 kg/m3
[1]; Crystal
  Normal melting temperature: 112.59 ± 0.39 °C
[2]; Crystal
  Molar enthalpy of transition or fusion: 4.72 ± 0.129 kcal/mol
[4]; 298 K, Crystal
  molar enthalpy: 16.79 ± 0.124 kcal/mol

— the NIST ThermoML archive (doi:10.1016/j.jct.2019.01.016)
